Test results reported in US20230087994A1, “TARGETED BIFUNCTIONAL DEGRADERS” (YALE UNIVERSITY, priority 2019, published 2023).

Tests used:
[1] = biological target: human IgG (fluorescently labeled) (human); test: cell-based or functional assay
[2] = system: HepG2 cells; test: MIF-GN3-mediated endocytosis of fluorescently labeled human MIF by HepG2 cells; details: for effect of endocytic pathway inhibitors on MIF-GN3-mediated MIF endocytosis: 100 nM MIF, 200 nM MIF-GN3, FIG. 132
Experimental: Human MIF protein was fluorescently labeled with Alexa 488 NHS ester, then incubated with HepG2 cells in the presence of varying levels of MIF-GN3.
Next, inhibitors of various endocytic pathways were utilized to determine if MIF-GN3 mediates MIF endocytosis in a manner consistent with ASGPR (FIG. 132).

[3] = system: HepG2 cells; test: DNP-AF3-mediated endocytosis of fluorescently labeled α-DNP antibody by HepG2 cells (flow cytometry); assay type: cell-based, human; details: 40 nM DNP-AF3, 100 nM antibody; for effect of endocytic pathway inhibitors on fluorescence of the cell population: FIG. 106
Experimental: The intracellular fluorescence of cells that were incubated at 37° C. with both fluorescently labeled α-DNP antibody and DNP-AF3 for a given amount of time was examined. Cells were then washed, removed from the plate with trypsin, and subjected to flow cytometry. Trypsin treatment is expected to cleave ASGPR and surface-bound α-DNP antibody from cells, and therefore the cellular fluorescence observed in these assays is expected to arise only from internalized antibodies.
It was then determined if reagents which inhibit ternary complex formation inhibit endocytosis mediated by DNP-AF3. In order to account for non-specific antibody association with cells, the mean fluorescence intensity of an aliquot of cells which had been treated with α-DNP antibody but not DNP-AF3 was subtracted from each reading. […] In the presence of 2.38 μM (0.1 mg/mL) ASOR, the cell population fluorescence was decreased to 4.66e5 (FIG. 105); at this ASOR concentration, ternary complex formation is decreased by approximately 70%. Because ternary complex is not inhibited completely at this concentration of ASOR, it is expected that productive endocytic events are still taking place.

[4] = system: HepG2 cells; test: DNP-GN3-mediated endocytosis of fluorescently labeled α-DNP antibody by adherent HepG2 cells; assay type: cell-based, human; details: DNP-GN3-mediated uptake; FIG. 89
Experimental: It was next explored whether DNP-GN3 mediates the endocytosis of fluorescently labeled α-DNP antibody.
To explore the cellular mechanism of antibody uptake, cells were treated with chemical inhibitors of several endocytic pathways (FIG. 89).

[5] = biological target: T1, ASGPR on the surface of immortalized human hepatocyte HepG2 cells (Homo sapiens, UniProt P07306+P07307); test: DNP-GN3-mediated ternary complex formation: association of fluorescently labeled α-DNP antibody with HepG2 cells in suspension; assay type: cell-based
T1 sequence (P07306 1-291): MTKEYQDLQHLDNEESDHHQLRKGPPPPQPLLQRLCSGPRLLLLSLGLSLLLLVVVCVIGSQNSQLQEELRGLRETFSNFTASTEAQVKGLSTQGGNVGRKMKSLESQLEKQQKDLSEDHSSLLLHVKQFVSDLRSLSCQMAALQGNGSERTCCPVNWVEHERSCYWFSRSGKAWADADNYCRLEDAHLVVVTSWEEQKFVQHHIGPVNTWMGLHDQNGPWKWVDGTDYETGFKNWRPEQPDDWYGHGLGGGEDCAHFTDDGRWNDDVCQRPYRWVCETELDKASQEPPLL
T1 sequence (P07307 1-311): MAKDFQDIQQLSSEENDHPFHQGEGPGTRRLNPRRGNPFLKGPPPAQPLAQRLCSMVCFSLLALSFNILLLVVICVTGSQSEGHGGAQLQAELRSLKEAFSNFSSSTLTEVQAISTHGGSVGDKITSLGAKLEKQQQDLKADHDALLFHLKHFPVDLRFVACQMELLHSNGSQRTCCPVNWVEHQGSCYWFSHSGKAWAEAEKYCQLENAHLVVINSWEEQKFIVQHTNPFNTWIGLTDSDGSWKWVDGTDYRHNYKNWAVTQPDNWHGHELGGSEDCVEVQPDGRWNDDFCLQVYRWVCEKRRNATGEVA
Source text: It was investigated whether DNP-GN3 could mediate the formation of a ternary complex between a fluorescently labeled α-DNP antibody and ASGPR on the surface of immortalized human hepatocyte HepG2 cells in suspension. […] The observed bell-shaped response to DNP-GN3 concentration is consistent with the prozone effect commonly observed in systems wherein a ternary complex is formed.

[6] = system: HepG2 cells; test: DNP-GN3-mediated endocytosis of fluorescently labeled α-DNP antibody by adherent HepG2 cells; assay type: cell-based, human; details: competitive binders at high concentrations; FIG. 88
[7] = biological target: T2, asialoglycoprotein receptor (ASGPR) on the surface of immortalized human hepatocyte HepG2 cells (human) (UniProt P07306); test: cell-based or functional assay
T2 sequence (looked up) 1: T1 sequence (P07306 1-291)
T2 sequence (looked up) 2: T1 sequence (P07307 1-311)

[8] = biological target: T2, asialoglycoprotein receptor (ASGPR) on the surface of immortalized human hepatocyte HepG2 cells (human); test: competition, flow cytometry on HepG2 cells against 40 nM DNP-AF3 and 100 nM α-DNP antibody
[9] = biological target: T2, asialoglycoprotein receptor (ASGPR) on the surface of immortalized human hepatocyte HepG2 cells (human); test: competition, flow cytometry: inhibition of DNP-GN3-mediated association of fluorescent α-DNP antibody with HepG2 cells in suspension (ASGPR on cells)
[10] = biological target: T3, human MIF (Homo sapiens, UniProt P14174); test: Depletion of human MIF from cell culture supernatant (sandwich ELISA); assay type: cell-based; set-up: host or cells: exogenous protein added to cell culture; details: 24 hours; FIG. 128B
T3 sequence (P14174 2-115 limits assumed): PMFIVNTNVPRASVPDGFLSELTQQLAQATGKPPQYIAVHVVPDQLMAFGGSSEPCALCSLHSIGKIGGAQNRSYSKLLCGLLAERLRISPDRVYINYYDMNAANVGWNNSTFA
Experimental: The ability of bifunctional MIF-binding molecules to mediate the depletion of human MIF from cell culture was investigated. In these assays, human MIF was present at a concentration of 100 nM, and a sandwich ELISA assay was utilized to measure the concentration of human MIF remaining in the cell culture supernatant. The closely related bifunctional molecules MIF-GN3, MIF-PEG2-GN3, and MIF-PEG4-GN3 were used, as well as the structurally dissimilar molecule MIF-NVS-PEG3-GN3. […] Based on the ease of its synthesis and its efficacy in this experiment, MIF-GN3 was utilized for further studies. It was next investigated whether the MIF inhibitor 3w mediates MIF depletion from cell culture supernatant. […] When cells were treated with 3w, no depletion of exogenous MIF protein was observed after 24 hours (FIG. 128B).

[11] = biological target: T3, human MIF; test: Depletion of injected recombinant human MIF from serum in mice; assay type: in vivo; set-up: injected into mice; details: control molecules; FIG. 136
Experimental: In vivo human MIF depletion experiments were undertaken to determine whether MIF-GN3 can mediate the depletion of injected recombinant human MIF from serum in mice. Mice were injected with five μg of the human MIF protein. In this experiment, one group of mice was also injected with a single 10 mpk dose of MIF-GN3 along with human MIF protein. It was observed that after four hours, the average level of human MIF in serum in the PBS-treated mice was 1.76 ng/mL (FIG. 134). In mice treated with 10 mpk MIF-GN3, however, the concentration of human MIF in serum was 0.68 ng/mL. One day after the initial injection, human MIF levels had reached background levels for both conditions. […] It was hypothesized that, due to the short half-life of human MIF in serum, investigating human MIF levels at earlier time points may be more informative.
Next, an experiment was performed to determine whether MIF-GN3 could enhance MIF clearance at time points earlier than four hours. Mice were coinjected with recombinant human MIF and 10 mpk MIF-GN3 via either i.p. or i.v. routes. For the PBS control arms, human MIF was injected with PBS. It was observed that in the absence of MIF-GN3, there was a spike in huMIF levels in circulation after 30 minutes (FIG. 135). In the presence of MIF-GN3, however, levels of MIF protein remained low at 30 minutes and no spike in its concentration was observed. By two hours, the levels of human MIF in circulation decreased to background levels. […] In a further experiment, whether an inhibitor of the MIF protein (3w) is able to mediate the protein's depletion from serum was determined. A bifunctional molecule that mediates the depletion of α-DNP antibody from serum was also assayed as a negative control. Neither of these molecules was expected to mediate the formation of a ternary complex between human MIF protein and ASGPR.
In order to confirm that mice injected with one or ten mpk MIF-GN3 had received the injection, and that the observed stability of MIF concentrations in MIF-GN3 treated mice was not the result of injection error, 200 μg of α-DNP antibody was coinjected with the MIF protein in this experiment. […] An investigation of the ability of MIF-GN3 to mediate the depletion of endogenous mouse MIF in vivo was next undertaken. Mice were treated with either PBS or 10 mpk of MIF-GN3. […] One possible explanation for this finding is that MIF protein may be synthesized rapidly, and any increase in degradation mediated by MIF-GN3 may not be of a large enough magnitude to impact the protein's level in serum.

[12] = system: PC3 cells; test: Human prostate cancer PC3 tumor growth in mice; assay type: in vivo; details: control and comparator arms; FIG. 138
Experimental: The ability of MIF-GN3 to mediate the depletion of MIF in a therapeutically relevant disease model was investigated. […] An experiment was conducted to determine whether the bifunctional molecule MIF-GN3 can deplete sufficient human MIF from serum to slow PC3 tumor growth. Mice were injected with an aliquot of PC3 cells, and the size of the resultant tumors as well as the levels of human MIF in serum were monitored over five weeks. […] Five weeks after the initial PC3 cell injection, the first of the mice reached maximal tumor size ([…]) and was sacrificed (FIG. 138). […] The decrease in human MIF levels mediated by MIF-GN3 is consistent with a mechanism of action in which MIF-GN3 mediates the depletion and degradation of circulating MIF protein. While the α-MIF antibody would not necessarily be expected to decrease the levels of human MIF, it is possible that the antibody mediates MIF neutralization in a manner which masks its signal as determined by ELISA. Alternatively, the α-MIF antibody may mediate depletion or degradation of huMIF by some endocytic mechanism. Another possible explanation is that the α-MIF antibody decrease serum levels of active human MIF to such an extent at early time points that PC3 cells proliferate much more slowly, and therefore fewer cells are actively secreting human MIF.
Mice were sacrificed when their tumor volumes reached 1000 mm^3. […] At this same time point, less than 25% of the mice in any other arm had survived.

FcIII-BCN-GN3 (peptide)
endocytosis of human IgG by HepG2 cells over time and concentration: most effective FcIII-BCN-GN3 concentration [1]: 1 µM

C[C@@H]1[C@H](O)[C@@H](C)/C=C/C=C/CC/C=C/C=C/C=C/C=C/C(O[C@H]2O[C@H](C)[C@@H](O)[C@H](N)[C@@H]2O)CC2O[C@](O)(CC(O)C(O)CCC(O)CC(O)CC(O)CC(=O)O[C@H]1C)CC(O)C2C(=O)O (stereo partly shown) [nystatin, Nystatin]
effect of endocytic pathway inhibitors on MIF-GN3-mediated MIF endocytosis [2]: did not decrease
effect of endocytic pathway inhibitors on fluorescence of the cell population [3]: did not significantly decrease
effect of endocytic pathway inhibitors on intracellular fluorescence [4]: did not significantly decrease

CC(=O)N[C@H]1C(O)O[C@H](CO)[C@H](O)[C@@H]1O (stereo partly shown) [GalNAc, N-acetylgalactosamine]
effect on DNP-AF3-mediated α-DNP antibody endocytosis ([3]; ASF 2.07 μM, AF and GalNAc 1.25 mM, FIG. 105): significantly decreased cellular fluorescence
IC50 [5]: 200000 nM
effect on DNP-GN3-mediated α-DNP antibody endocytosis [6]: significantly decreased

FcIII-GN3 (oxidized cyclized form) (peptide)
endocytosis of Alexa 488-labeled human IgG by HepG2 cells (flow cytometry, six hours): FcIII-GN3 concentration giving maximal uptake [1]: 200 nM

COc1ccc2c(c1)c(CC(=O)O)c(C)n2C(=O)c1ccc(Cl)cc1 [indomethacin, Indomethacin]
effect of endocytic pathway inhibitors on MIF-GN3-mediated MIF endocytosis [2]: did not decrease
effect of endocytic pathway inhibitors on fluorescence of the cell population [3]: did not significantly decrease

asialoorosomucoid (ligand)
mean fluorescence of the HepG2 cell population (DNP-AF3-mediated α-DNP antibody endocytosis) in the presence of 2.38 µM (0.1 mg/mL) ASOR; approximately 1.31e6 without inhibitor (mean fluorescence) [7]: 466000
percent decrease of ternary complex formation at 2.38 µM (0.1 mg/mL) ASOR [8]: 70%
IC50 [9]: 17 nM

Oc1ccc(-n2cc(-c3ccc4cc(OCCOCCN5CCOCC5)ccc4n3)nn2)cc1F [Compound 3w, reference compound]
depletion of exogenous MIF protein from supernatant [10]: no depletion
human MIF concentration in serum compared to the PBS control [11]: no significant decreases
PC3 tumor growth [12]: not found to decrease tumor growth

O=c1c(-c2ccc(O)cc2)coc2cc(O)cc(O)c12 [genistein, Genistein]
toxicity to cells ([2]; HepG2 cells with MIF and MIF-GN3): toxic to cells
effect of endocytic pathway inhibitors on fluorescence of the cell population [3]: did not significantly decrease

N=C(N)NC(=O)c1nc(Cl)c(N)nc1N [amiloride, Amiloride]
effect of endocytic pathway inhibitors on MIF-GN3-mediated MIF endocytosis [2]: did not impact cellular fluorescence significantly
effect of endocytic pathway inhibitors on fluorescence of the cell population [3]: A decrease in cellular fluorescence
effect of endocytic pathway inhibitors on intracellular fluorescence [4]: did not significantly decrease

B1: asialofetuin (ligand, UniProt P12763 19-359, looked up, species assumed)
Alpha-2-HS-glycoprotein: IPLDPVAGYKEPACDDPDTEQAALAAVDYINKHLPRGYKHTLNQIDSVKVWPRRPTGEVYDIEIDTLETTCHVLDPTPLANCSVRQQTQHAVEGDCDIHVLKQDGQFSVLFTKCDSSPDSAEDVRKLCPDCPLLAPLNDSRVVHAVEVALATFNAESNGSYLQLVEISRAQFVPLPVSVSVEFAVAATDCIAKEVVDPTKCNLLAEKQYGFCKGSVIQKALGGEDVRVTCTLFQTQPVIPQPQPDGAEAEAPSAVPDAAGPTPSAAGPPVASVVVGPSVVAVPLPLHRAHYDLRHTFSGVASVESSSGEAFHVGKTPIVGQPSIPGGPVRLCPGRIRYFKI
modifications: desialylated
IC50 [9]: 65 nM
